Converted amounts (≈) assume the structure as drawn. The source made the active and inactive calls. The calls are words filed in the database; no cut-off is given here.

Assay [1] deals with NCI-H460. The experiment in a line: Cytotoxicity against human NCI-H460 cells. It counts as functional, cell-based.
Assay [2] has as its system HepG2. The assay is described as follows: Cytotoxicity against human HepG2 cells. It counts as functional, cell-based.
Assay [3] relates to Candida albicans. The experiment in a line: Antifungal activity against Candida albicans after 18 hrs by broth microdilution method. In kind it is functional. (In general: Dilution methods test growth across graded concentrations, often in twofold steps.)
Assay [4] relates to SW1990. The assay is described as follows: Cytotoxicity against human SW1990 cells. In kind it is functional, cell-based.
Assay [5] concerns HeLa. The experiment in a line: Cytotoxicity against human HeLa cells. In kind it is functional, cell-based.
For assay [6], the system named is MCF7. The experiment in a line: Cytotoxicity against human MCF7 cells. It counts as functional, cell-based.
For assay [7], the system named is MDA-MB-231. The experiment in a line: Cytotoxicity against human MDA-MB-231 cells. In kind it is functional, cell-based.
For assay [8], the system named is SMMC-7721. The assay is described as follows: Cytotoxicity against human SMMC7721 cells. In kind it is functional, cell-based.
For assay [9], the system named is Staphylococcus epidermidis. The assay is described as follows: Antibacterial activity against Staphylococcus epidermidis after 18 hrs by broth microdilution method. It counts as functional.
Assay [10] has as its system Staphylococcus aureus. The assay is described as follows: Antibacterial activity against methicillin-resistant Staphylococcus aureus after 18 hrs by broth microdilution method. In kind it is functional.
Assay [11] deals with Pseudomonas fluorescens. The experiment in a line: Antibacterial activity against Pseudomonas fluorescens after 18 hrs by broth microdilution method. It counts as functional.
Assay [12] concerns Pseudomonas aeruginosa. The experiment in a line: Antibacterial activity against Pseudomonas aeruginosa after 18 hrs by broth microdilution method. In kind it is functional.
[13] abbreviates: Homo sapiens, NCI-H460, read-out: IC50.
The mark [14] stands for this setting: Homo sapiens, SW1990, read-out: IC50.
The mark [15] stands for this setting: Homo sapiens, HeLa, read-out: IC50.
[16] abbreviates: Homo sapiens, MCF7, read-out: IC50.
The mark [17] stands for this setting: Homo sapiens, MDA-MB-231, read-out: IC50.
The mark [18] stands for this setting: Homo sapiens, HepG2, read-out: IC50.
Where [19] appears, read: Homo sapiens, SMMC-7721, read-out: IC50.

For the compound `C[C@]12C(=O)O[C@@H]3C=C4COC(=O)C=C4[C@@](C)(C=C[C@@H]1O)[C@@H]32`, the half-maximal inhibitory concentration (IC50) in assay [1] (setting [13]) is 42 µM; in assay [2] (hepg2), “Not Active”; in assay [4] (setting [14]), 63 µM; in assay [5] (setting [15]), 63 µM; in [6] (setting [16]), 38 µM; in assay [7] (setting [17]), 42 µM. The same compound had an MIC in assay [3] of 16 µg/mL (≈ 55.5 µM).
With `C=C1[C@@H](O)C[C@@H]2[C@](C)(CCC[C@]2(C)C(=O)O)[C@H]1CC(=O)O`, the 50% inhibitory concentration (IC50) result in assay [1] (nci-h460), in assay [2] (hepg2), in assay [4] (sw1990), in assay [5] (hela), in assay [6] (mcf7) and in [8] (smmc-7721) was “Not Active” in each case. The IC50 result in assay [7] (mda-mb-231) is “Not Active”. Further, in [3], the MIC entry was “inactive”.
As for `CC1(C)S[C@@H]2[C@H](NC(=O)[C@H](N)c3ccccc3)C(=O)N2[C@H]1C(=O)O` [AMPICILLIN], the MIC was 4 µg/mL (≈ 11.4 µM) in assay [9], 8 µg/mL (≈ 22.9 µM) in assay [10], 2 µg/mL (≈ 5.72 µM) in assay [11] and 4 µg/mL (≈ 11.4 µM) in assay [12].
On to `C[C@]12C3=CC(=O)OCC3=C[C@H]3OC(=O)[C@@](C)(C=C[C@H]1O)[C@H]32` [ASPEROLIDE A], for which the IC50 is 42 µM in assay [1] (setting [13]); 63 µM in [2] (setting [18]); 69 µM in assay [4] (setting [14]); 97 µM in [5] (setting [15]); “Not Active” in assay [6] (mcf7); 52 µM in assay [8] (setting [19]). In addition, the MIC result in [3] was “inactive”.
`C[C@@]12C3=CC(=O)OCC3=C[C@H]3OC(=O)[C@](C)([C@H]31)[C@H]1O[C@H]1[C@H]2O` [ASPEROLIDE B]: the IC50 was 63 µM in [1] (setting [13]); “Not Active” in [2] (hepg2); 69 µM in assay [4] (setting [14]); 56 µM in assay [5] (setting [15]); 63 µM in [6] (setting [16]); 35 µM in assay [7] (setting [17]).
On to `COc1cccc2c1C(=O)c1c(O)c3c(c(O)c1C2=O)C[C@@](O)(C(=O)CO)C[C@@H]3O[C@H]1C[C@H](N)[C@H](O)[C@H](C)O1` [DOXORUBICIN], for which the concentration for half-maximal inhibition (IC50) in [2] (setting [18]) was determined as 7 µM; in assay [5] (setting [15]), 5 µM; in assay [6] (setting [16]) it was 7 µM; in [8] (setting [19]), 172 µM; in [7] (setting [17]) it was 4 µM.
As to `O=c1[nH]cc(F)c(=O)[nH]1` [FLUOROURACIL], the half-maximal inhibitory concentration (IC50) was 8 µM in [1] (setting [13]); 108 µM in assay [2] (setting [18]); 123 µM in assay [4] (setting [14]); 108 µM in [5] (setting [15]); 15 µM in assay [8] (setting [19]); 62 µM in [7] (setting [17]).
For `C[C@@]12C3=CC(=O)OCC3=C[C@H]3OC(=O)[C@](C)([C@H]31)[C@@H](O)[C@H]1O[C@H]12` [WENTILACTONE A], the IC50 turned out to be 28 µM in [1] (setting [13]); 35 µM in [2] (setting [18]); 42 µM in assay [4] (setting [14]); 52 µM in [5] (setting [15]); 69 µM in assay [6] (setting [16]); 28 µM in assay [8] (setting [19]). For the same compound, the MIC entry in assay [3] was “inactive”.
For the compound `C[C@@]12C[C@@H](O)C[C@]3(C)C4=CC(=O)OCC4=C[C@@H](OC1=O)[C@@H]23` [WENTILACTONE B], the half-inhibitory concentration (IC50) in [1] (setting [13]) was 24 µM; in assay [2] (setting [18]), 38 µM; in assay [4] (setting [14]) it was 24 µM; in [5] (setting [15]), 42 µM; in assay [6] (setting [16]) it was 56 µM; in assay [8] (setting [19]) it was 17 µM. In assay [3], the MIC entry is “inactive”.
In turn, NYSTATIN returned an MIC in [3] of 2 µg/mL.

Usually IC50 stands for the midpoint of a concentration-inhibition curve. In general, MIC refers to the lowest concentration found to suppress growth.

The values are drawn from ChEMBL document CHEMBL2010682, “Asperolides A-C, tetranorlabdane diterpenoids from the marine alga-derived endophytic fungus Aspergillus wentii EN-48” (J Nat Prod, 2012).
